pIC50: −log10 of the molar value. Starred links: 1 amine or outer side, 2 acyl side, 3 side chain; linkers in the order of their positions; H or OH if unused. Positions of bridges follow the written chain, without caps; N, C: chain ends. Non-standard residues stand in square brackets, D forms with d. Residues, ends and D or L forms follow the SMILES beside them. *: point of attachment. hPhe(3-Cl-4-CF3) = N[C@@H](CCc1ccc(C(F)(F)F)c(Cl)c1)C(=O)O; hPhe(3-F,4-CF3) = N[C@@H](CCc1ccc(C(F)(F)F)c(F)c1)C(=O)O; NMePhe(4-CF3) = CN[C@@H](Cc1ccc(C(F)(F)F)cc1)C(=O)O; NPrAsp = CCCN([C@@H](CC(=O)[*:3])C(=O)[*:2])[*:1]; hPhe(4-CF3) = N[C@@H](CCc1ccc(C(F)(F)F)cc1)C(=O)O; NMeMet(O2) = CN[C@@H](CCS(C)(=O)=O)C(=O)O; NMedβ3hAla = C[C@H](CC(=O)[*:2])N(C)[*:1]; NMeAla(cPent) = CN[C@@H](CC1CCCC1)C(=O)O; NMeGly(cPent) = CN[C@H](C(=O)O)C1CCCC1; Pro(4,4-F2) = O=C(O)[C@@H]1CC(F)(F)CN1; NMeAla(cPr) = CN[C@@H](CC1CC1)C(=O)O; mXylylene = c1cc(C[*:1])cc(C[*:2])c1; oXylylene = c1ccc(C[*:2])c(C[*:1])c1; NMeGly(cBu) = CN[C@H](C(=O)O)C1CCC1; NMeCha = CN[C@@H](CC1CCCCC1)C(=O)O; cisHyp = O=C(O)[C@@H]1C[C@H](O)CN1; Hyp = O=C(O)[C@@H]1C[C@@H](O)CN1; NMeAhp(2) = CCCCC[C@H](NC)C(=O)O; NMeChg = CN[C@H](C(=O)O)C1CCCCC1; NMeD = CN[C@@H](CC(=O)O)C(=O)O; NMeL = CN[C@@H](CC(C)C)C(=O)O; NMehSer = CN[C@@H](CCO)C(=O)O; NMeV = CN[C@H](C(=O)O)C(C)C; Ac6c = NC1(C(=O)O)CCCCC1; Morpholide = C1CN(*)CCO1; NMeA = CN[C@@H](C)C(=O)O; Piperidide = C1CCN(*)CC1; Pyrrolidide = C1CCN(*)C1; Ac5c = NC1(C(=O)O)CCCC1; Aze = O=C(O)[C@@H]1CCN1; Meb = Cc1ccc(C*)cc1; X27 = Clc1ccccc1C*; Sar = CNCC(=O)O
What was measured:
[1] = target: T1, Kras and SOS1 (biotin-tagged human Kras loaded with GDP, His-tagged human SOS1) (Homo sapiens, UniProt P01116, G12D); assay: Protein-protein interaction inhibition between Kras and SOS1 (KrasGl2D-SOS PPI) using AlphaScreen; assay type: binding; settings: AlphaScreen; biotin-tagged human Kras loaded with GDP, His-tagged human SOS1; read-out: KRAS G12D-SOS PPI IC50
T1 construct: made in house; host or cells: E. coli (stated for Kras only)
In short: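 Energy transfer from nickel-chelate donor beads bound to His-SOS1 to streptavidin acceptor beads bound to biotin-Kras, expressed in E. coli and loaded with GDP after purification, was monitored. Donors were excited at 680 nm; singlet oxygen reaching acceptors gave emission read at 520-620 nm.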

[2] = tested on: Human pancreatic cancer cell line AsPC-1; assay: Measurement of AsPC-1 cell growth inhibition (AsPC-1 CGI); assay type: cell-based; settings: 96 h
In short: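 AsPC-1 cells in 15% FBS RPMI-1640 were exposed to test compound for 96 hours at 37° C, with CellTiter-Glo as endpoint.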

T1 sequence (P01116 1-188 isoform P01116-2 G12D): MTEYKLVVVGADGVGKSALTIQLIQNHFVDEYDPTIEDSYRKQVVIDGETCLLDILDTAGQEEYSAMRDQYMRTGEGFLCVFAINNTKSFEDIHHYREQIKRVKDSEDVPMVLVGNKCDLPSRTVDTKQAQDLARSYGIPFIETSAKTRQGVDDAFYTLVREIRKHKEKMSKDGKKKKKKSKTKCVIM

| Compound | pIC50 [1] | pIC50 [2] |
| --- | --- | --- |
| CCCCC[C@H]1C(=O)N[C@@H]([C@@H](C)CC)C(=O)N[C@@H](C)C(=O)N2CC[C@H]2C(=O)N(C)[C@@H](C2CCCC2)C(=O)N(C)CC(=O)N[C@@H](CCc2ccc(C(F)(F)F)c(Cl)c2)C(=O)N2CCC[C@H]2C(=O)NC2(CCCC2)C(=O)N(C)[C@@H](C2CCCC2)C(=O)N(C)[C@H](C(=O)N2CCOCC2)CC(=O)N1C [Compound 11] ([NMeAhp(2)]IA[Aze][NMeGly(cPent)][Sar][hPhe(3-Cl-4-CF3)]P[Ac5c][NMeGly(cPent)][NMeD]-Morpholide; lactam N-11) | 8.82 | 7.00 to 7.30 |
| CC[C@H](C)[C@@H]1NC(=O)[C@H](CC(C)C)N(C)C(=O)C[C@@H](C(=O)N2CCCCC2)N(C)C(=O)[C@H](CC2CCCC2)N(C)C(=O)C2(CCCC2)NC(=O)[C@@H]2CCCN2C(=O)[C@H](CCc2ccc(C(F)(F)F)c(Cl)c2)NC(=O)CN(C)C(=O)[C@H](CC2CCCCC2)N(C)C(=O)CN(C)C(=O)CN(C)C1=O [Compound 30] ([NMeL]I[Sar][Sar][NMeCha][Sar][hPhe(3-Cl-4-CF3)]P[Ac5c][NMeAla(cPent)][NMeD]-Piperidide; lactam N-11) | 8.34 | 6.30 to 7.00 |
| CC[C@H](C)[C@@H]1NC(=O)[C@H](CC(C)C)N(C)C(=O)C[C@@H](C(=O)N2CCCCC2)N(C)C(=O)[C@H](C2CCCCC2)N(C)C(=O)C2(CCCC2)NC(=O)[C@@H]2CC(F)(F)CN2C(=O)[C@H](CCc2ccc(C(F)(F)F)c(Cl)c2)NC(=O)CN(C)C(=O)[C@H](CC2CCCCC2)N(C)C(=O)CN(C)C(=O)CN(C)C1=O [Compound 48] ([NMeL]I[Sar][Sar][NMeCha][Sar][hPhe(3-Cl-4-CF3)][Pro(4,4-F2)][Ac5c][NMeChg][NMeD]-Piperidide; lactam N-11) | 9.01 | 7.30 to 7.70 |
| CC[C@H](C)[C@@H]1NC(=O)[C@H](CCS(C)(=O)=O)N(C)C(=O)C[C@@H](C(=O)N2CCCCC2)N(C)C(=O)[C@H](C2CCCCC2)N(C)C(=O)C2(CCCC2)NC(=O)[C@@H]2CCCN2C(=O)[C@H](CCc2ccc(C(F)(F)F)c(Cl)c2)NC(=O)CN(C)C(=O)[C@H](CC2CCCCC2)N(C)C(=O)CN(C)C(=O)CN(C)C1=O [Compound 52] ([NMeMet(O2)]I[Sar][Sar][NMeCha][Sar][hPhe(3-Cl-4-CF3)]P[Ac5c][NMeChg][NMeD]-Piperidide; lactam N-11) | 9.18 | 6.30 to 7.00 |
| CCCN1C(=O)[C@H](C2CCCC2)N(C)C(=O)C2(CCCC2)NC(=O)[C@@H]2CCCN2C(=O)[C@H](CCc2ccc(C(F)(F)F)c(Cl)c2)NC(=O)CN(C)C(=O)[C@H](CC2CCCCC2)N(C)C(=O)CN(C)C(=O)CN(C)C(=O)[C@H]([C@@H](C)CC)NC(=O)[C@H](C)N(C)C(=O)C[C@H]1C(=O)N1CCCCC1 [Compound 56] ([NMeA]I[Sar][Sar][NMeCha][Sar][hPhe(3-Cl-4-CF3)]P[Ac5c][NMeGly(cPent)][NPrAsp]-Piperidide; lactam N-11) | 8.64 | 7.30 to 7.70 |
| CC[C@H](C)[C@@H]1NC(=O)[C@H](CC2CCCC2)N(C)C(=O)C[C@@H](C(=O)N2CCCCC2)N(C)C(=O)[C@H](C(C)C)N(C)C(=O)C2(CCCC2)NC(=O)[C@@H]2CCCN2C(=O)[C@H](CCc2ccc(C(F)(F)F)c(Cl)c2)NC(=O)CN(C)C(=O)[C@H](CC2CCCCC2)N(C)C(=O)CN(C)C(=O)CN(C)C1=O [Compound 60] ([NMeAla(cPent)]I[Sar][Sar][NMeCha][Sar][hPhe(3-Cl-4-CF3)]P[Ac5c][NMeV][NMeD]-Piperidide; lactam N-11) | 8.10 | 6.30 to 7.00 |
| CC[C@H](C)[C@@H]1NC(=O)[C@H](CC2CC2)N(C)C(=O)C[C@@H](C(=O)N2CCCCC2)N(C)C(=O)[C@H](C2CCCCC2)N(C)C(=O)C2(CCCC2)NC(=O)[C@@H]2CCCN2C(=O)[C@H](CCc2ccc(C(F)(F)F)c(Cl)c2)NC(=O)CN(C)C(=O)[C@H](CC2CCCCC2)N(C)C(=O)CN(C)C(=O)CN(C)C1=O [Compound 68] ([NMeAla(cPr)]I[Sar][Sar][NMeCha][Sar][hPhe(3-Cl-4-CF3)]P[Ac5c][NMeChg][NMeD]-Piperidide; lactam N-11) | 9.24 | 7.00 to 7.30 |
| CC[C@H](C)[C@@H]1NC(=O)[C@H](C)N(C)C(=O)C[C@@H](C(=O)N2CCCCC2)N(C)C(=O)[C@H](C2CCCCC2)N(C)C(=O)C2(CCCC2)NC(=O)[C@@H]2CCCN2C(=O)[C@H](CCc2ccc(C(F)(F)F)cc2)NC(=O)CN(C)C(=O)[C@H](CC2CCCCC2)N(C)C(=O)CN(C)C(=O)CN(C)C1=O [Compound 72] ([NMeA]I[Sar][Sar][NMeCha][Sar][hPhe(4-CF3)]P[Ac5c][NMeChg][NMeD]-Piperidide; lactam N-11) | 9.33 | 6.30 to 7.00 |
| CC[C@H](C)[C@@H]1NC(=O)[C@H](C2CCC2)N(C)C(=O)C[C@@H](C(=O)N2CCCC2)N(C)C(=O)[C@H](C2CCCCC2)N(C)C(=O)C2(CCCC2)NC(=O)[C@@H]2CCCN2C(=O)[C@H](CCc2ccc(C(F)(F)F)c(Cl)c2)NC(=O)CN(C)C(=O)[C@H](Cc2ccc(C(F)(F)F)cc2)N(C)C(=O)CN(C)C(=O)CN(C)C1=O [Compound 73] ([NMeGly(cBu)]I[Sar][Sar][NMePhe(4-CF3)][Sar][hPhe(3-Cl-4-CF3)]P[Ac5c][NMeChg][NMeD]-Pyrrolidide; lactam N-11) | 9.48 | 7.30 to 7.70 |
| CC[C@H](C)[C@@H]1NC(=O)[C@H](CC(C)C)N(C)C(=O)C[C@@H](C)N(C)C(=O)[C@H](C(C)C)N(C)C(=O)C2(CCCCC2)NC(=O)[C@@H]2CCCN2C(=O)[C@H](CCc2ccc(C(F)(F)F)c(Cl)c2)NC(=O)CN(C)C(=O)[C@H](CC2CCCCC2)N(C)C(=O)CN(C)C(=O)CN(C)C1=O [Compound 81] (cyclo([Ac6c][NMeV][NMedβ3hAla][NMeL]I[Sar][Sar][NMeCha][Sar][hPhe(3-Cl-4-CF3)]P)) | 7.85 | 6.30 to 7.00 |
| CC[C@H](C)[C@@H]1NC(=O)[C@H](CC(C)C)N(C)C(=O)C[C@@H](C(=O)N2CCCCC2)N(C)C(=O)[C@H](CC(C)C)N(C)C(=O)C2(CCCC2)NC(=O)[C@@H]2C[C@H](OCc3ccccc3C)CN2C(=O)[C@H](CCc2ccc(C(F)(F)F)c(F)c2)NC(=O)CN(C)C(=O)[C@H](CC2CCCCC2)N(C)C(=O)CN(C)C(=O)CN(C)C1=O [Compound 2137] ([NMeL]I[Sar][Sar][NMeCha][Sar][hPhe(3-F,4-CF3)][cisHyp](oXylylene)[Ac5c][NMeL][NMeD]-Piperidide; lactam N-11) |  | < 6.30 |
| CC[C@H](C)[C@@H]1NC(=O)[C@H](CC(C)C)N(C)C(=O)C[C@@H](C(=O)N2CCCCC2)N(C)C(=O)[C@H](CC(C)C)N(C)C(=O)C2(CCCC2)NC(=O)[C@@H]2C[C@@H](OCc3ccccc3Cl)CN2C(=O)[C@H](CCc2ccc(C(F)(F)F)c(F)c2)NC(=O)CN(C)C(=O)[C@H](CC2CCCCC2)N(C)C(=O)CN(C)C(=O)CN(C)C1=O [Compound 2138] ([NMeL]I[Sar][Sar][NMeCha][Sar][hPhe(3-F,4-CF3)][Hyp](X27)[Ac5c][NMeL][NMeD]-Piperidide; lactam N-11) |  | 6.30 to 7.00 |
| CC[C@H](C)[C@@H]1NC(=O)[C@H](CC(C)C)N(C)C(=O)C[C@@H](C(=O)N2CCCCC2)N(C)C(=O)[C@H](CC(C)C)N(C)C(=O)C2(CCCC2)NC(=O)[C@@H]2C[C@@H](OCc3ccccc3C)CN2C(=O)[C@H](CCc2ccc(C(F)(F)F)c(F)c2)NC(=O)CN(C)C(=O)[C@H](CC2CCCCC2)N(C)C(=O)CN(C)C(=O)CN(C)C1=O [Compound 2139] ([NMeL]I[Sar][Sar][NMeCha][Sar][hPhe(3-F,4-CF3)][Hyp](oXylylene)[Ac5c][NMeL][NMeD]-Piperidide; lactam N-11) |  | 6.30 to 7.00 |
| CC[C@H](C)[C@@H]1NC(=O)[C@H](CC(C)C)N(C)C(=O)C[C@@H](C(=O)N2CCCCC2)N(C)C(=O)[C@H](CC(C)C)N(C)C(=O)C2(CCCC2)NC(=O)[C@@H]2C[C@H](OCc3ccc(C)cc3)CN2C(=O)[C@H](CCc2ccc(C(F)(F)F)c(F)c2)NC(=O)CN(C)C(=O)[C@H](CC2CCCCC2)N(C)C(=O)CN(C)C(=O)CN(C)C1=O [Compound 2140] ([NMeL]I[Sar][Sar][NMeCha][Sar][hPhe(3-F,4-CF3)][cisHyp](Meb)[Ac5c][NMeL][NMeD]-Piperidide; lactam N-11) |  | < 6.30 |
| CC[C@H](C)[C@@H]1NC(=O)[C@H](CC(C)C)N(C)C(=O)C[C@@H](C(=O)N2CCCCC2)N(C)C(=O)[C@H](CC(C)C)N(C)C(=O)C2(CCCC2)NC(=O)[C@@H]2C[C@H](OCc3cccc(C)c3)CN2C(=O)[C@H](CCc2ccc(C(F)(F)F)c(F)c2)NC(=O)CN(C)C(=O)[C@H](CC2CCCCC2)N(C)C(=O)CN(C)C(=O)CN(C)C1=O [Compound 2141] ([NMeL]I[Sar][Sar][NMeCha][Sar][hPhe(3-F,4-CF3)][cisHyp](mXylylene)[Ac5c][NMeL][NMeD]-Piperidide; lactam N-11) |  | < 6.30 |
| CC[C@H](C)[C@@H]1NC(=O)[C@H](CC(C)C)N(C)C(=O)C[C@@H](C(=O)N2CCCCC2)N(C)C(=O)[C@H](C2CCCCC2)N(C)C(=O)C2(CCCC2)NC(=O)[C@H](CCOC)N(C)C(=O)[C@H](CCc2ccc(C(F)(F)F)c(Cl)c2)NC(=O)CN(C)C(=O)[C@H](CC2CCCCC2)N(C)C(=O)CN(C)C(=O)CN(C)C1=O [Compound 2168] ([NMeL]I[Sar][Sar][NMeCha][Sar][hPhe(3-Cl-4-CF3)][NMehSer](Me)[Ac5c][NMeChg][NMeD]-Piperidide; lactam N-11) |  | 6.30 to 7.00 |

Source: patent publication US12371454B2, “Cyclic peptide compound having Kras inhibitory action” (priority 2019, dated 2025)
